Data published in patent publication US20080113956A1, “Substituted Porphyrins” (priority 1997, published 2008).

Legend:
[1] = SOD-like activity in vitro (xanthine/xanthine oxidase, ferricytochrome c; McCord and Fridovich); format: biochemical; conditions: for rate of dismutation (kcat): Example VII
Description: (§1) SOD activity can be monitored in the presence and absence of EDTA using the method of McCord and Fridovich (J. Biol. Chem. 244:6049 (1969)). The efficacy of a mimetic can also be determined by measuring the effect of the mimetic on the aerobic growth of a SOD null E. coli strain versus a parental strain lacking the specific mutations. Specifically, parental E. coli (AB1157) and SOD null E. coli. (JI132) can be grown in M9 medium containing 0.2% casamino acids and 0.2% glucose at pH 7.0 and 37° C.; growth can be monitored in terms of turbidity followed at 700 nm.
The superoxide dismutase activity of the mimetics of the invention depends on a number of factors, including thermodynamic factors (eg the metal-centered redox-potential see FIG. 1)), and kinetic factors (eg electrostatic facilitation).
Superoxide dismuting activity. The SOD-like activities were measured using the xanthine/xanthine oxidase system as a source of O2^− and ferricytochrome c as its indicating scavenger (McCord et al, J. Biol. Chem. 244:6049 (1969)). O2— was produced at the rate of 1.2 μM per minute and reduction of ferricytochrome c was followed at 550 nm. Assays were conducted in presence of 0.1 mM EDTA in 0.05 M phosphate buffer (pH 7.8). Rate constants for the reaction of the compounds were based upon competition with […] cytochrome c, kcyt c=2.6×10^5 M^−1s^−1 (Butler et al, J. Biol. Chem. 257:10747 (1982)). All measurements were done at 25° C. Cytochrome c concentration was at least 10^3-fold higher than the concentrations of the SOD mimics and the rates were linear for at least two minutes, during which the compounds intercepted ˜100 equivalents of O2^−, thus confirming the catalytic nature of O2^− dismutation in presence of the mimics.
Superoxide dismuting activities. SOD-like activities were measured as described previously, based on competition with cytochrome c (McCord et al, J. Biol. Chem. 244:6049 (1969)). MnClxTE-2-PyP^5+ SOD-like activities are reported in Table 5, IC50 (M) representing the concentration for one unit of activity (or the concentration that causes 50% inhibition of cytochrome c reduction by O2^−) and kcat (M^−1s^−1) representing the rate constant for the superoxide dismutation reaction. The SOD-like activity per mole of MnCl4TE-2-PyP^5 is approximately 2-, 7- and 100-fold higher than MnOBTMPyP^4+, MnTM-2-PyP^5+ and MnTM-4PyP^5+, respectively (Faulkner et al, J. Biol. Chem. 269:23471 (1994); Batinic-Haberle et al, Arch. Biochem. Biophys. 343:225 (1997); Batinic-Haberle et al, J. Biol. Chem. 273:24521 (1998)). The SOD-like activity of MnCl4TE-2-PyP^5+ represents 20% of the activity of the Cu,Zn-SOD enzyme on a molar basis (40% per active site considering that the enzyme has two active sites) (Klug-Roth et al, J. Am. Chem. Soc. 95:2786 (1973)).

[2] = Electrochemistry: metal-centered redox potential; format: physicochemical; conditions: for Redox Potential (E1/2): metal centered, pH 7.8 if not otherwise specified; for redox potential: text of Example VIII, unit not given
Description: Electrochemistry. The electrochemical characterization was performed as described previously on a Voltammetric Analyzer Model 600 (CH instrument) using a glassy carbon electrode (Ag/AgCl reference and Pt auxiliary electrodes), at 0.5 mM porphyrin, pH 7.8 (0.05 M phosphate buffer), 0.1 M NaCl. The potentials were standardized against potassium ferricyanide/potassium ferrocyanide couple (Batinic-Haberle et al, Arch. Biochem. Biophys. 343:225 (1997); Kolthof et al, J. Phys. Chem. 39:945 (1974)).
Electrochemistry. The metal-centered redox behavior of all metalloporphyrin products was reversible. The half-wave potentials (E^O1/2) were calculated as the average of the cathodic and anodic peaks and are given in mV vs NHE (Table 5). The average shift per chlorine is +55 mV (Table 5), which is in agreement with the values previously reported for H2TPP derivatives (between −50 and +70 mV) (Sen et al, Chem. Soc. Faraday Trans. 93:4281 (1997); Autret et al. J. Chem. Soc. Dalton Trans. 2793 (1996); Hariprasad et al, J. Chem. Soc. Dalton Trans. 3429 (1996); Tagliatesta et al, Inorg. Chem. 35:5570 (1996); Ghosh, J. Am. Chem. Soc. 117:4691 (1995); Takeuchi et al, J. Am. Chem. Soc. 116:9730 (1994); Binstead et al, Inorg. Chem. 30:1259 (1991); Giraudeau et al, J. Am. Chem. Soc. 101:3857 (1979)). This shift appears to be higher (˜+65 mV) between 0 and 1, and between 2 and 3 chlorines (Table 5). […] The manganese redox state of MnCl4TE-2-PyP^5 (E^O1/2=+448 mV) and MnOBTMPyP^4+ (E^O1.2=+480 mV) is 3+ and 2+, respectively. This difference may be explained by their difference in terms of redox potential (˜30 mV) but also by structural considerations, for instance an increased distortion of the porphyrin ring in the case of MnOBTMPyP^4+. (Batinic-Haberle et al, Arch. Biochem. Biophys. 343:225 (1997); Ochsenbein et al, Angew. Chem. Int. Ed. Engl. 33:348 (1994)).

SOD null E. coli (JI132) = test: Aerobic growth of SOD null E. coli strain versus parental strain; format: cell-based; conditions: for aerobic growth (A700) of SOD null E. coli cells: 20 μM, glucose minimal medium (M9) plus 5 essential amino acids, JI132
Description: FIG. 3. SOD activity in vivo (E. coli) of 1, 2, 3* and 4* (20 μM) in minimal medium (mixture of atropoisomers, JI=SOD deficient strain, AB parental strain).
as §1
The activity in vivo of the mimetics of the invention can be tested on an E. coli strain deleted of the genes coding for both the MnSOD and FeSOD. In this assay, the efficacy of a mimetic is determined by measuring the effect of the mimetic on the aerobic growth of a SOD null E. coli strain versus a parental strain. Specifically, parental E. coli (AB1157) and SOD null E. coli. (JI132) are grown in M9 medium containing 0.2% casamino acids and 0.2% glucose at pH 7.0 and 37° C.; growth is monitored in terms of turbidity followed at 700 nm.

Row | Compound | rate of dismutation (kcat) [1] [M⁻¹ s⁻¹] | Redox Potential (E1/2) ([2]; vs NHE) | redox potential [2] | E1/2 one-electron metal-centered redox-potential ([2]; vs NHE, listed as 1) | half-wave potential (E1/2) ([2]; vs normal hydrogen electrode (NHE), Example VII) | aerobic growth (A700) of SOD null E. coli cells (SOD null E. coli (JI132); listed as 1) | growth of SOD-deficient Escherichia coli (SOD null E. coli (JI132); Example VII) | SOD activity in vitro relative to the para compound 1 ([1]; in vitro enzymatic assay) | aerobic growth (A700) of SOD null E. coli cells (SOD null E. coli (JI132); listed as 3) | toxicity in vivo (E. coli) (SOD null E. coli (JI132); FIG. 3) | kcat rate constant for the superoxide dismutation reaction ([1]; 0.1 mM EDTA, 0.05 M phosphate buffer pH 7.8, 25° C.) | IC50 ([1]; 0.1 mM EDTA, 0.05 M phosphate buffer pH 7.8, 25° C., read-out: IC50 concentration that causes 50% inhibition of cytochrome c reduction by O2^−) [nM] | E°1/2 half-wave potential ([2]; vs NHE, 0.5 mM porphyrin, 0.1 M NaCl, 0.05 M phosphate buffer (pH 7.8)) | aerobic growth (A700) of SOD null E. coli cells (SOD null E. coli (JI132))
1 | manganese(III) 5,10,15,20-tetrakis(N-methylpyridyl)porphyrin [MnTM-4-PyP^5+, reference compound] | 3.8e+06 | +0.06 V | +0.06 | +0.060 V | +0.060 V | did not show an increase in A700 | inhibited growth |  |  |  |  |  |  | 
2 | manganese(III) 5,10,15,20-tetrakis(N-methylpyridyl)porphyrin [MnTM-2-PyP^5+] | 6e+07 | +0.22 V | +0.22 |  |  |  |  | more than an order of magnitude more active | increase in A700 | decreased toxicity |  |  |  | 
3 | CC[n+]1ccccc1-c1c2nc(c(-c3cccc[n+]3CC)c3ccc([n-]3)c(-c3cccc[n+]3CC)c3nc(c(-c4cccc[n+]4CC)c4ccc1[n-]4)C=C3)C=C2.[Mn+3] [MnTE-2-PyP^5+, manganic meso-tetrakis-(N-ethylpyridinium-2-yl)porphyrin] |  |  |  |  |  |  |  |  |  |  | 5.7 10^7 M^−1 s^−1 | 45 | +228 mV | increase in A700
